In ChEMBL document CHEMBL5537159, “Discovery and SAR of JTE-151: A Novel RORγ Inhibitor for Clinical Development” (J Med Chem, 2024):
Calls of active or inactive are those of the source. No cut-off for these calls is given here.

Experiments:
[1] = Lipophilicity, logD of compound by RP-HPLC analysis; format: physicochemical
[2] = Elimination half life in CD(SD) rat at 1 mg/kg, iv administered as single dose and measured after 24 hrs; format: ADME, organism-based; settings: in vivo, read-out: beta t1/2 (converted)
[3] = Total body clearance in CD(SD) rat at 1 mg/kg, iv administered as single dose and measured after 24 hrs; format: ADME, organism-based; settings: in vivo
[4] = Volume of distribution at steady state in CD(SD) rat at 1 mg/kg, iv administered as single dose and measured after 24 hrs; format: ADME, organism-based; settings: in vivo, read-out: Vdss
[5] = Oral bioavailability in CD(SD) rat at 10 mg/kg administered as single dose and measured after 24 hrs; format: ADME, organism-based; settings: in vivo
[6] = Elimination half life in C57BL/6J mouse at 1 mg/kg, iv administered as single dose and measured after 24 hrs; format: ADME, organism-based; settings: in vivo, read-out: beta t1/2 (converted)
[7] = Total body clearance in C57BL/6J mouse at 1 mg/kg, iv administered as single dose and measured after 24 hrs; format: ADME, organism-based; settings: in vivo
[8] = Volume of distribution at steady state in C57BL/6J mouse at 1 mg/kg, iv administered as single dose and measured after 24 hrs; format: ADME, organism-based; settings: in vivo, read-out: Vdss
[9] = AUCinfinity in C57BL/6J mouse at 3 mg/kg, po administered as single dose and measured after 24 hrs; format: ADME, organism-based; settings: in vivo
[10] = Oral bioavailability in C57BL/6J mouse at 3 mg/kg administered as single dose and measured after 24 hrs; format: ADME, organism-based; settings: in vivo
[11] = Volume of distribution at steady state in Beagle dog at 1 mg/kg, iv administered as single dose and measured after 24 hrs; format: ADME, organism-based, Canis lupus familiaris; settings: in vivo, read-out: Vdss
[12] = Elimination half life in cynomolgus monkey at 1 mg/kg, iv administered as single dose and measured after 24 hrs; format: ADME, organism-based, Macaca fascicularis; settings: in vivo, read-out: beta t1/2 (converted)
[13] = Volume of distribution at steady state in cynomolgus monkey at 1 mg/kg, iv administered as single dose and measured after 24 hrs; format: ADME, organism-based, Macaca fascicularis; settings: in vivo, read-out: Vdss
[14] = Selectivity ratio of antagonist activity at human AR to inhibition of RORgamma (unknown origin)
[15] = Selectivity ratio of antagonist activity at human ERalpha to inhibition of RORgamma (unknown origin)
[16] = Selectivity ratio of antagonist activity at human PPARdelta to inhibition of RORgamma (unknown origin)
[17] = Selectivity ratio of antagonist activity at human PPARgamma to inhibition of RORgamma (unknown origin)
[18] = Selectivity ratio of agonist activity at human AR to inhibition of RORgamma (unknown origin)
[19] = Selectivity ratio of agonist activity at human ERalpha to inhibition of RORgamma (unknown origin)
[20] = Selectivity ratio of agonist activity at human VDR to inhibition of RORgamma (unknown origin)
[21] = Selectivity ratio of agonist activity at human PPARalpha to inhibition of RORgamma (unknown origin)
[22] = Selectivity ratio of agonist activity at human PPARgamma to inhibition of RORgamma (unknown origin)
[23] = target: Voltage-gated L-type calcium channel (Rattus norvegicus, UniProt P22002+Q02485+P27732); assay: Inhibition of rat L-type Ca2+ channel; format: protein assay
[24] = target: GABA-A receptor; anion channel; assay: Inhibition of rat GABA-A receptor; format: protein-complex assay
Histamine H3 receptor = Histamine H3 receptor (Homo sapiens, UniProt Q9Y5N1); assay: Inhibition of human histamine H3 receptor
Sequence of Histamine H3 receptor (Q9Y5N1 whole entry): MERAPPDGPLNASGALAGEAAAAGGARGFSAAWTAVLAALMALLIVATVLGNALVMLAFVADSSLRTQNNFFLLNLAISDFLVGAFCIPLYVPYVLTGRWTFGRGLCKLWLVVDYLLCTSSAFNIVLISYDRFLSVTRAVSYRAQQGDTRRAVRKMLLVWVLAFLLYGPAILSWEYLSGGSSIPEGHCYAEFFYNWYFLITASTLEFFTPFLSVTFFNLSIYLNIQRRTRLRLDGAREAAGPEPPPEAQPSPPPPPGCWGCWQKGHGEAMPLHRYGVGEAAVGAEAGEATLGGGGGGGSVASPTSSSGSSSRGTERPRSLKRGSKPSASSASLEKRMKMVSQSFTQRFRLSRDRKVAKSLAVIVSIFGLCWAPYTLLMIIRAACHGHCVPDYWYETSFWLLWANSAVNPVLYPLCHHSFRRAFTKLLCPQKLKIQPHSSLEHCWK

[25] = Inhibition of rat Muscarinic receptor
[26] = Inhibition of rat opioid receptor
[27] = target: Prostaglandin G/H synthase 1 (Ovis aries, UniProt P05979); assay: Inhibition of ovine cox-1
Sequence of Prostaglandin G/H synthase 1 (P05979 whole entry): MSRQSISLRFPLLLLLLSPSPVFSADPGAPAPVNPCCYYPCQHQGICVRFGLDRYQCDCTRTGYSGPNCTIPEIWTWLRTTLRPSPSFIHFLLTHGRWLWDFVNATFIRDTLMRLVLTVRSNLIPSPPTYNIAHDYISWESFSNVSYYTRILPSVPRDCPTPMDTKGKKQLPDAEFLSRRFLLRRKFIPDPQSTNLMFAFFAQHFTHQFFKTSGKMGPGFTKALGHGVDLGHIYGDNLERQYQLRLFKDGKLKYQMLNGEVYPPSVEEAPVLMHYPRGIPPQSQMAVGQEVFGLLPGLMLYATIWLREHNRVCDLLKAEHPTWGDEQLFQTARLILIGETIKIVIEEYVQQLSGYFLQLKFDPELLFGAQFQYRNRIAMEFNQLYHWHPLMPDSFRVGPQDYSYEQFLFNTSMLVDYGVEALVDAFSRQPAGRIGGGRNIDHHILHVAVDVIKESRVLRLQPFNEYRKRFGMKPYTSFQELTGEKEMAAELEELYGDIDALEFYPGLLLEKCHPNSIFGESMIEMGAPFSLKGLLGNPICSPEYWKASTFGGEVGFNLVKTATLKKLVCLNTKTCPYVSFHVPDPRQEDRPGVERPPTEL

[28] = target: Amine oxidase [flavin-containing] A (Homo sapiens, UniProt P21397); assay: Inhibition of human MAO-A
Sequence of Amine oxidase [flavin-containing] A (P21397 whole entry): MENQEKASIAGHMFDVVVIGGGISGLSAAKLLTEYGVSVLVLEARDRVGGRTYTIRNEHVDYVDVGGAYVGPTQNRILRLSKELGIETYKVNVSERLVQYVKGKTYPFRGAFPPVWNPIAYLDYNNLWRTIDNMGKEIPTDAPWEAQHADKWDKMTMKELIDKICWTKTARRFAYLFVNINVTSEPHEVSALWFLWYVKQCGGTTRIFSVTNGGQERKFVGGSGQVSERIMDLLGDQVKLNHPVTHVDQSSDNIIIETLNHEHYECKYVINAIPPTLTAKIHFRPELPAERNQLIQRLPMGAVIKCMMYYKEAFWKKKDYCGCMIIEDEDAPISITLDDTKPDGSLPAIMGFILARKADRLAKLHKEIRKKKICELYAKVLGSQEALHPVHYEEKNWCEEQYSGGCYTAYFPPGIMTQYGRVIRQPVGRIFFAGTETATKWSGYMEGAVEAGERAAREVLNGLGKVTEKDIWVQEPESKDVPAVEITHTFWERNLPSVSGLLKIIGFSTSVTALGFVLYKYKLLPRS

[29] = target: Amine oxidase [flavin-containing] B (Homo sapiens, UniProt P27338); assay: Inhibition of human MAO-B
Sequence of Amine oxidase [flavin-containing] B (P27338 whole entry): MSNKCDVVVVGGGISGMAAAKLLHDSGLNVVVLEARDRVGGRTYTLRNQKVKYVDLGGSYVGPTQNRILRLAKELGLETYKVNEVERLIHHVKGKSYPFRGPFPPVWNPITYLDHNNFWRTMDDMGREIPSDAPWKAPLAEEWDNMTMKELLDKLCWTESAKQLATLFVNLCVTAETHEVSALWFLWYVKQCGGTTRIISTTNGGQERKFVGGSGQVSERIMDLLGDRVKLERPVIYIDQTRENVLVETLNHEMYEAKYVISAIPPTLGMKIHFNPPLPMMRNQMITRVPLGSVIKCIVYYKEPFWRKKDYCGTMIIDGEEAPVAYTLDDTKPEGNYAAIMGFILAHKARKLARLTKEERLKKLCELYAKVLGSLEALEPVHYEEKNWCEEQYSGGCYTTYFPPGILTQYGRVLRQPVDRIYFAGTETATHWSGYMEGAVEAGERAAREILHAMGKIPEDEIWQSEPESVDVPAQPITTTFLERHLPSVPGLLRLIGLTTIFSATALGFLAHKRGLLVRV

Cytochrome P450 2A6 = Cytochrome P450 2A6 (Homo sapiens, UniProt P11509); assay: Inhibition of CYP2A6 in human liver microsomes; format: ADME, Microsome
Sequence of Cytochrome P450 2A6 (P11509 whole entry): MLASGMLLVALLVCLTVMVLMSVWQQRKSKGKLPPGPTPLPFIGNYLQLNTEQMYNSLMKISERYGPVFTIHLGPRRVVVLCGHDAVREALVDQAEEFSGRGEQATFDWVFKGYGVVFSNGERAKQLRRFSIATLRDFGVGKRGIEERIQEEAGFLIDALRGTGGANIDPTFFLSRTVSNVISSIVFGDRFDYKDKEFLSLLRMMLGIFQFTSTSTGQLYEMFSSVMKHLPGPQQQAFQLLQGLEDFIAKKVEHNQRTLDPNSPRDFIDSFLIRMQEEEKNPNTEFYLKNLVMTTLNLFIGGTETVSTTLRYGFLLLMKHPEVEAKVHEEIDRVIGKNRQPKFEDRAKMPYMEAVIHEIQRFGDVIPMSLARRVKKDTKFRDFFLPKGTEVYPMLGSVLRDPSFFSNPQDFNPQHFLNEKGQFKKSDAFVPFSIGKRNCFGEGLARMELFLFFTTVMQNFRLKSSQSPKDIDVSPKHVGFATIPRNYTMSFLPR

Cytochrome P450 2B6 = Cytochrome P450 2B6 (Homo sapiens, UniProt P20813); assay: Inhibition of CYP2B6 in human liver microsomes; format: ADME, Microsome
Sequence of Cytochrome P450 2B6 (P20813 whole entry): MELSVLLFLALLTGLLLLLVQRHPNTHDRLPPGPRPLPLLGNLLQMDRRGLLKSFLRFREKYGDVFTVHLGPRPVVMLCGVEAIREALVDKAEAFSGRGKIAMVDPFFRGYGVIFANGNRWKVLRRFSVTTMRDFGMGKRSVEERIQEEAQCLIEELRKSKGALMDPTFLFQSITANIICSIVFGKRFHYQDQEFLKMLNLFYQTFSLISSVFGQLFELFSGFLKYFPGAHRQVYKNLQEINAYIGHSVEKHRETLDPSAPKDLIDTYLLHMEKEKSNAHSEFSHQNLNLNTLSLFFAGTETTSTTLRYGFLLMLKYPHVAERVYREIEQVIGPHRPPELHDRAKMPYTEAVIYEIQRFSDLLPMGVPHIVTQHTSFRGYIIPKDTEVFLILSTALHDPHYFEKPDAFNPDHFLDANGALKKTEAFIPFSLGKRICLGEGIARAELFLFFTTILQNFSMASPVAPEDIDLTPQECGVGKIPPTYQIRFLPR

Cytochrome P450 2C9 = Cytochrome P450 2C9 (Homo sapiens, UniProt P11712); assay: Inhibition of CYP2C9 in human liver microsomes; format: ADME, Microsome
Sequence of Cytochrome P450 2C9 (P11712 whole entry): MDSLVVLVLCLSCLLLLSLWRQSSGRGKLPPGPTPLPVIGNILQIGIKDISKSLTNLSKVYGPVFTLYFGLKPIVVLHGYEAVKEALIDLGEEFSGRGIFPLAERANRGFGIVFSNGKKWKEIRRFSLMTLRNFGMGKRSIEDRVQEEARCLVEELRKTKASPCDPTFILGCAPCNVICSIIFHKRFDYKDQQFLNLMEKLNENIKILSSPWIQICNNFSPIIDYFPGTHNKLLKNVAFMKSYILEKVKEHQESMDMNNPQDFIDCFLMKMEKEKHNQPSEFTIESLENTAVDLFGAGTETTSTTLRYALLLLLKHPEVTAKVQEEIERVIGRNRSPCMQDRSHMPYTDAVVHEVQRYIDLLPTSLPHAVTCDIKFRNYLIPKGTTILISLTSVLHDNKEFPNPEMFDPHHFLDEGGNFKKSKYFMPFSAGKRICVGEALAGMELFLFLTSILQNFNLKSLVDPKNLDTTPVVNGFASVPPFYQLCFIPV

Cytochrome P450 3A4 = Cytochrome P450 3A4 (Homo sapiens, UniProt P08684); assay: Inhibition of CYP3A4 in human liver microsomes using midazolam as substrate; format: ADME, Microsome
Sequence of Cytochrome P450 3A4 (P08684 whole entry): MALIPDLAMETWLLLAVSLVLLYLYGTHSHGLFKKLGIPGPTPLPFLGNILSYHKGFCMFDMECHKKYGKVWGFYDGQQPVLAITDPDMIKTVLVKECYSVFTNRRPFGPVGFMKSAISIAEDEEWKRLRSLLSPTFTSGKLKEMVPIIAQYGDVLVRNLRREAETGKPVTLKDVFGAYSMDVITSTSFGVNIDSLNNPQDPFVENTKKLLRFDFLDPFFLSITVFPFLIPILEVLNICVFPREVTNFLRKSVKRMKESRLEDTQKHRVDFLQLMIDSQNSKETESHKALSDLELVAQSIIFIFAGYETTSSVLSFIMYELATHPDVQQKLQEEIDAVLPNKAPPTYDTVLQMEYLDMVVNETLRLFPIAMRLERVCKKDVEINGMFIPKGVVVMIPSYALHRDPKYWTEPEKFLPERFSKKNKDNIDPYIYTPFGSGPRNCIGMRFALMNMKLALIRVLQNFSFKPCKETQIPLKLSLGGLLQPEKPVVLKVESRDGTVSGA

Cytochrome P450 3A5 = Cytochrome P450 3A5 (Homo sapiens, UniProt P20815); assay: Inhibition of CYP3A5 in human liver microsomes using midazolam as substrate; format: ADME, Microsome
Sequence of Cytochrome P450 3A5 (P20815 whole entry, the tested form may be a part): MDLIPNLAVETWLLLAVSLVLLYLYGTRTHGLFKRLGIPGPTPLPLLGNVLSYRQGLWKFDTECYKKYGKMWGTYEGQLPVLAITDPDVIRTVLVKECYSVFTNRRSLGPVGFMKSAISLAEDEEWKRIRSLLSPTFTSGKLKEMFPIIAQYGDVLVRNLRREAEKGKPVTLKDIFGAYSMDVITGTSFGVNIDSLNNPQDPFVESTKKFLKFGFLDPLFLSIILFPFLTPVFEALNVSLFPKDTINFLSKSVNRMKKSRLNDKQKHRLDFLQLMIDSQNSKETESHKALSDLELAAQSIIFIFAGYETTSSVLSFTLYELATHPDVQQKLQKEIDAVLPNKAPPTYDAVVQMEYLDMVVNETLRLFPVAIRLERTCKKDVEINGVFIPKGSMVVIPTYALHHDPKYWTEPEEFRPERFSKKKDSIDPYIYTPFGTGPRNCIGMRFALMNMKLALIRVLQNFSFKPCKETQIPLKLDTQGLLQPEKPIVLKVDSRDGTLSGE

Mus musculus = assay: Anti-inflammatory activity in complete Freund's adjuvant/MOG (35 to 55 residues)/pertussis toxin-induced experimental autoimmune encephalomyelitis C57BL/6 mouse model assessed as reduction in paralysis by measuring reduction in EAE clinical score at 3 to 10 mg/kg, po administered once daily for 17 days and measured on day 18; format: functional, organism-based; settings: dose 3-10 mg/kg, time 18.0 day
[30] = Genotoxicity in Salmonella typhimurium TA100 at 23 to 750 ug in presence of S9 fraction by bacterial reverse mutation test; format: toxicity, subcellular, Salmonella enterica subsp. enterica serovar Typhimurium; settings: dose 23-750 µg
[31] = Genotoxicity in Salmonella typhimurium TA100 at 23 to 750 ug in absence of S9 fraction by bacterial reverse mutation test; format: toxicity, Salmonella enterica subsp. enterica serovar Typhimurium; settings: in vivo; dose 23-750 µg
[32] = Genotoxicity in Salmonella typhimurium TA1535 at 188 to 5000 ug in presence of S9 fraction by bacterial reverse mutation test; format: toxicity, subcellular, Salmonella enterica subsp. enterica serovar Typhimurium; settings: dose 188-5000 µg
[33] = Cmax in human at 30 […], po administered as single dose and measured upto 144 hrs; format: ADME, organism-based; settings: in vivo
[34] = Cmax in human at 200 […], po administered as single dose and measured upto 144 hrs; format: ADME, organism-based; settings: in vivo
[35] = Cmax in human at 1600 […], po administered as single dose and measured upto 144 hrs; format: ADME, organism-based; settings: in vivo
[36] = Tmax in human at 60 […], po administered as single dose and measured upto 144 hrs; format: ADME, organism-based; settings: in vivo
[37] = Tmax in human at 400 […], po administered as single dose and measured upto 144 hrs; format: ADME, organism-based; settings: in vivo
[38] = AUClast in human at 30 mg/kg, po administered as single dose and measured upto 144 hrs; format: ADME, organism-based; settings: in vivo
[39] = AUClast in human at 200 mg/kg, po administered as single dose and measured upto 144 hrs; format: ADME, organism-based; settings: in vivo
[40] = AUClast in human at 400 mg/kg, po administered as single dose and measured upto 144 hrs; format: ADME, organism-based; settings: in vivo
[41] = Elimination half life in human at 200 mg/kg, po administered as single dose and measured upto 144 hrs; format: ADME, organism-based; settings: in vivo, read-out: beta t1/2 (converted)
[42] = Elimination half life in human at 600 mg/kg, po administered as single dose and measured upto 144 hrs; format: ADME, organism-based; settings: in vivo, read-out: beta t1/2 (converted)
[43] = Toxicity in Beagle dog assessed as development-limiting toxicity at 100 mg/kg, po bid administered 2 doses at 4 hrs interval and measured on day 1,14 and 28; format: organism-based, Canis lupus familiaris; settings: in vivo, 672 h, time 28 day

In the case of Cc1ccc(NC(=O)C[C@H](CCC(=O)O)c2noc([C@H]3C[C@@H](CC(C)(C)C)C3)c2C2CC2)c(Cl)c1, the logD [1] is reported as 5.1, the half-life [2] is reported as 3 h and the clearance [3] is reported as 1.83 mL/min/kg. The Vd [4] was 0.34 L/kg, the bioavailability [5] was 106% and the half-life [6] was 3.8 h. For the same molecule, the clearance [7] was 0.5 mL/min/kg, the Vd [8] was 0.16 L/kg and the AUC(0-inf) [9] was 173 µM·h. It also gave a bioavailability [10] of 98%, a Vd [11] of 0.19 L/kg and a half-life [12] of 5.9 h. For the same molecule, the Vd [13] was 0.36 L/kg, the Selectivity ratio [14] was > 100 and the Selectivity ratio [15] was > 100. The Selectivity ratio [16] was > 100, the Selectivity ratio [17] was > 100 and the Selectivity ratio [18] was > 100. For the same molecule, the Selectivity ratio [19] was > 100, the Selectivity ratio [20] was > 100 and the Selectivity ratio [21] was > 100. The Selectivity ratio [22] was > 100, the IC50 [23] was > 10 µM and the IC50 [24] was > 10 µM. For the same molecule, the IC50 (Histamine H3 receptor) was > 10 µM, the IC50 [25] was > 10 µM and the IC50 [26] was > 10 µM. The IC50 [27] was > 10 µM, the IC50 [28] was > 10 µM and the IC50 [29] was > 10 µM. The IC50 (Cytochrome P450 2A6) was > 10 µM, the IC50 (Cytochrome P450 2B6) was > 10 µM and the IC50 (Cytochrome P450 2C9) was > 10 µM. The IC50 (Cytochrome P450 3A4) was > 10 µM, the IC50 (Cytochrome P450 3A5) was > 10 µM and the Activity (Mus musculus) was “Active”. The Activity [30] was “Non-Toxic”, the Activity [31] was “Non-Toxic” and the Activity [32] was “Non-Toxic”. It also gave a Cmax [33] of 1220 ng/mL, a Cmax [34] of 8790 ng/mL and a Cmax [35] of 60700 ng/mL. The Tmax [36] was 4 h, the Tmax [37] was 3 h and the AUC(0-t) at 144 h [38] was 6030 ng·h/mL. It also gave an AUC(0-t) at 144 h [39] of 49500 ng·h/mL, an AUC(0-t) at 144 h [40] of 94300 ng·h/mL and a half-life [41] of 12.4 h. The half-life [42] was 7.33 h and the Activity [43] was “Non-Toxic”.
